Converted amounts (≈) assume the structure as drawn. Bridge positions count the residues as written; N and C are the ends. Side chains are listed from the residue outwards. Peptide text beside a SMILES is read from it. I, II: the chains in the order shown. Where only a bound is given, the exact number is not on record here.

The subject of one data set is S. aureus ATCC 29213. In words: microbe, parasite or virus in culture. In kind it is cell-based, Staphylococcus aureus. Particulars: ATCC 29213. How it is done: (§1) Clinical isolates of CRE, MRSA and VRE were obtained from Lancet Laboratories, Durban, South Africa, with approval BE394/15 from the Biomedical Research Ethical Committee of the University of KwaZulu-Natal. Five reference strains of bacteria, namely Escherichia coli ATCC 25922, Pseudomonas aeruginosa ATCC 27853, Enterococcus faecium ATCC 35667, Staphylococcus aureus ATCC 29213 and Bacillus subtilis ATCC 6051 were supplied by the American Type Culture Collection (ATCC).
(§2) MIC values were determined by the broth microdilution method and the significance of the values obtained was interpreted following the guidelines of the Clinical and Laboratory Standards for Antimicrobial Susceptibility Testing.. The effect of human serum on the antimicrobial effect of the molecules tested was determined in a similar way to the MIC method used above in a solution of 50% human serum plus Mueller–Hinton broth.

The next data set concerns B. subtilis ATCC 6051. Nature of the data set: microbe, parasite or virus in culture. In kind it is cell-based, Bacillus subtilis. Particulars: ATCC 6051. How it is done: as §1, §2
In a further data set the test system is E. faecium ATCC 35667. In words: microbe, parasite or virus in culture. In kind it is cell-based, Enterococcus faecium. The conditions noted are these: ATCC 35667. How it is done:
as §1, §2

A further data set has as its system E. coli ATCC 25822. In words: microbe, parasite or virus in culture. In kind it is cell-based, Escherichia coli. The conditions noted are these: ATCC 25822. How it is done:
as §1, §2

Another data set deals with P. aeruginosa ATCC 27853. Nature of the data set: microbe, parasite or virus in culture. The data set is classed as cell-based, Pseudomonas aeruginosa. The conditions noted are these: ATCC 27853. How it is done:
as §1, §2

A further data set is described as follows: MTT cytotoxicity assay. The data set is classed as cell-based, human. The conditions noted are these: human, HepG2 cells, HepG2, 24 h exposure.
The next data set can be described thus: in vitro. The conditions noted are these: human.
Data set [1] relates to MRSA (methicillin-resistant S. aureus) isolates. In words: microbe, parasite or virus in culture. In kind it is cell-based. How it is done:
as §1, §2

A further data set concerns VRE, E. faecium isolates. Nature of the data set: microbe, parasite or virus in culture. The data set is classed as cell-based. How it is done:
as §1, §2

A further data set relates to P. aeruginosa. Nature of the data set: Time–kill curves. The data set is classed as cell-based. How it is done:
Killing curve assays were performed with a starting inoculum of 6 × 10^6 CFU/mL. […] Antimicrobials were added to 5 mL of bacteria in the exponential phase of growth and incubated at 37 °C with shaking. Samples were obtained aseptically at 0, 1, 2, 4, 6 and 24 h, diluted in Ringer 1/4 and plated on TSA for colony counting. The response of microbial strains to a single antimicrobial was determined by lowering logarithms of viable bacteria. In accordance with Lora-Tamayo et al., an antimicrobial was considered active when a reduction of ≥1 log10 relative to the initial inoculum was observed.

Protocol for MTT cytotoxicity assay: (§3) Cell viability was evaluated using the colorimetric MTT assay [21]. Human hepatocarcinoma (HepG2) cells and human embryonic kidney 293 (HEK-293) cells used in the drug toxicity assays were obtained from Cellonex (Johannesburg, South Africa). Viable HepG2 and HEK293 cells (20,000 cells/well) were seeded into a 96-well microtiter plate (200 µL) and allowed to attach overnight. The cells were exposed to varying concentrations of the peptides for 24 h. After removal of the treatment medium, 20 µL of MTT salt solution (5 mg/mL in 0.1M phosphate buffer saline (PBS)) and 100 µL of complete cell culture medium (CCM) were added to each well. After a 4 h (37 °C) incubation, the MTT salt solution was discarded and 100 μL of dimethyl sulphoxide (DMSO) were added to each well (1 h, 37 °C). The optical density of the solubilized formazan product was measured at 570 nm (reference λ of 690 nm) using a Bio-tek μQuant spectrophotometer (Winooski, VT, USA). […] GraphPad Prism (V5) (La Jolla, CA, USA) was used to obtain the half maximum inhibitory concentration (IC50) for each compound.
Protocol for in vitro: as §3

For orientation: IC50 means the concentration needed to halve the response being measured. Higher therefore signals weaker potency in that assay. With `CC(C)C[C@H](NC(=O)[C@H](CC(C)C)NC(=O)[C@H](CCCNC(=N)N)NC(=O)[C@H](CC(C)C)NC(=O)[C@H](CC(C)C)NC(=O)[C@H](CCCCNC(=O)[C@H](CCCNC(=N)N)NC(=O)[C@H](CC(C)C)NC(=O)[C@@H](N)CCCNC(=N)N)NC(=O)[C@H](CCCNC(=N)N)NC(=O)[C@H](CC(C)C)NC(=O)[C@@H](N)CCCNC(=N)N)C(N)=O` [G1RLR-L2RL2, (RLR)2KLLRLL-NH2] (H-RLRK([Arg-Leu-Arg])LLRLL-NH2), the MBC amounted to 16 µg/mL (≈ 9.97 µM) with S. aureus ATCC 29213; 32 µg/mL (≈ 19.9 µM) against B. subtilis ATCC 6051; 4 µg/mL (≈ 2.49 µM) against E. faecium ATCC 35667; 8 µg/mL (≈ 4.98 µM) in the data set on E. coli ATCC 25822; 16 µg/mL (≈ 9.97 µM) in the data set on P. aeruginosa ATCC 27853. For the same compound, the MIC in the data set on S. aureus ATCC 29213 came out at 16 µg/mL (≈ 9.97 µM); with B. subtilis ATCC 6051 it was 32 µg/mL (≈ 19.9 µM); with E. faecium ATCC 35667, 4 µg/mL (≈ 2.49 µM); in the data set on E. coli ATCC 25822 it was 8 µg/mL (≈ 4.98 µM); against P. aeruginosa ATCC 27853, 16 µg/mL (≈ 9.97 µM). The results for the IC50 at 24 h in “MTT cytotoxicity assay” and in “in vitro” were 328 µg/mL (≈ 204 µM) and 153 µg/mL (≈ 95.3 µM), respectively.
As for `CC(=O)N[C@@H](CCCCN)C(=O)N[C@@H](CC(C)C)C(=O)N[C@@H](CCCCN)C(=O)NCCCC[C@H](NC(=O)[C@H](CCCCN)NC(=O)[C@H](CC(C)C)NC(=O)[C@H](CCCCN)NC(C)=O)C(=O)N[C@@H](CCCCN)C(=O)N[C@@H](CC(C)C)C(=O)N[C@@H](CCCCN)C(=O)NCCCC[C@H](NC(=O)[C@H](CCCCN)NC(=O)[C@H](CC(C)C)NC(=O)[C@H](CCCCN)NC(=O)[C@H](CCCCNC(=O)[C@H](CCCCN)NC(=O)[C@H](CC(C)C)NC(=O)[C@H](CCCCN)NC(C)=O)NC(=O)[C@H](CCCCN)NC(=O)[C@H](CC(C)C)NC(=O)[C@H](CCCCN)NC(C)=O)C(=O)N[C@@H](CC(C)C)C(=O)N[C@@H](CC(C)C)C(=O)N[C@@H](CCCCN)C(=O)N[C@@H](CC(C)C)C(=O)N[C@@H](CC(C)C)C(N)=O` [Ac-G2KLK-L2KL2, (Ac-KLK)4(KKLK)2KLLKLL-NH2] (I: Ac-KLKK([Lys-Leu-Lys-Ac])KLKKLLKLL-NH2 / II: Ac-KLKK([Lys-Leu-Lys-Ac])KLK; amide I:8-II:C), the MBC against S. aureus ATCC 29213 is given as 128 µg/mL (≈ 38 µM); against B. subtilis ATCC 6051, 16 µg/mL (≈ 4.75 µM); with E. faecium ATCC 35667 it was 128 µg/mL (≈ 38 µM); against E. coli ATCC 25822, 16 µg/mL (≈ 4.75 µM); in the data set on P. aeruginosa ATCC 27853, 16 µg/mL (≈ 4.75 µM). Moreover, the MIC in the data set on S. aureus ATCC 29213 was 64 µg/mL (≈ 19 µM); in the data set with B. subtilis ATCC 6051, 8 to 16 µg/mL; against E. faecium ATCC 35667, 64 µg/mL (≈ 19 µM); against E. coli ATCC 25822, 8 to 16 µg/mL; against P. aeruginosa ATCC 27853 it was 8 to 16 µg/mL; in data set [1] (methicillin-resistant ) isolates), 128 µg/mL (≈ 38 µM).
In the case of “I: H-KLKK([Lys-Leu-Lys])KLKKKLKKLLKLL-NH2 / II: H-KLKK([Lys-Leu-Lys])KLKKKLK / III: H-KLKK([Lys-Leu-Lys])KLK / IV: H-KLKK([Lys-Leu-Lys])KLK (amide I:8-IV:C, I:12-II:C, II:8-III:C) [G3KLK-L2KL2, (KLK)8(KKLK)4(KKLK)2KLLKLL-NH2]”, the MBC in the data set on S. aureus ATCC 29213 came to 16 µg/mL; against B. subtilis ATCC 6051, 8 µg/mL; with E. faecium ATCC 35667, 64 µg/mL; against E. coli ATCC 25822, 32 µg/mL; with P. aeruginosa ATCC 27853, 16 µg/mL. Also, the MIC was 16 µg/mL in the data set with S. aureus ATCC 29213; 4 to 8 µg/mL in the data set with B. subtilis ATCC 6051; 64 µg/mL in the data set with E. faecium ATCC 35667; 32 µg/mL with E. coli ATCC 25822; 16 µg/mL in the data set on P. aeruginosa ATCC 27853. The results for the IC50 at 24 h in “MTT cytotoxicity assay” and in the data set “in vitro” were 25.7 µg/mL and 53.9 µg/mL, respectively.
In the case of `CN[C@H](CC(C)C)C(=O)N[C@H]1C(=O)N[C@@H](CC(N)=O)C(=O)N[C@H]2C(=O)N[C@H]3C(=O)N[C@H](C(=O)N[C@H](C(=O)O)c4cc(O)cc(O)c4-c4cc3ccc4O)[C@H](O)c3ccc(c(Cl)c3)Oc3cc2cc(c3O[C@@H]2O[C@H](CO)[C@@H](O)[C@H](O)[C@H]2O[C@H]2C[C@](C)(N)[C@H](O)[C@H](C)O2)Oc2ccc(cc2Cl)[C@H]1O` [Van, vancomycin, reference compound], the MIC in [1] (MRSA isolate B11970), in data set [1] (MRSA isolate B13178), in [1] (MRSA isolate P10747), in data set [1] (MRSA isolate P10781), in data set [1] (MRSA isolate P11520) and in data set [1] (MRSA isolate S18155) was 1 µg/mL (≈ 0.69 µM) throughout. Besides, the MIC in [1] (MRSA isolate S37938) is 1 µg/mL (≈ 0.69 µM); in data set [1] (MRSA isolate T5683) it was 1 µg/mL (≈ 0.69 µM); in data set [1] (Staphylococcus aureus), 1 µg/mL (≈ 0.69 µM); in data set [1] (Staphylococcus aureus, MRSA), 1 µg/mL (≈ 0.69 µM); in the data set with VRE, E. faecium isolates (Enterococcus faecium), above 128 µg/mL; with VRE, E. faecium isolates (Enterococcus faecium, VRE), above 128 µg/mL. Also, the MIC in the data set with VRE, E. faecium isolates (VRE E. faecium isolate 938072607) is above 128 µg/mL; in the data set with VRE, E. faecium isolates (VRE E. faecium isolate 938600912) it was above 128 µg/mL; in the data set on VRE, E. faecium isolates (VRE E. faecium isolate 938636470), above 128 µg/mL; in the data set with VRE, E. faecium isolates (VRE E. faecium isolate 938666613), above 128 µg/mL; against VRE, E. faecium isolates (VRE E. faecium isolate 945530665) it was above 128 µg/mL; with VRE, E. faecium isolates (VRE E. faecium isolate 951208931), above 128 µg/mL. For the same compound, the MIC in the data set on VRE, E. faecium isolates (VRE E. faecium isolate 951234856) is listed as above 128 µg/mL; against VRE, E. faecium isolates (VRE E. faecium isolate 951245262), above 128 µg/mL.
For `CC(C)C[C@H](NC(=O)[C@H](CC(C)C)NC(=O)[C@H](CCCNC(=N)N)NC(=O)[C@H](CC(C)C)NC(=O)[C@H](CC(C)C)NC(=O)[C@H](CCCCNC(=O)[C@H](CCCNC(=N)N)NC(=O)[C@H](CC(C)C)NC(=O)[C@H](CCCNC(=N)N)NC(=O)[C@H](CCCCNC(=O)[C@H](CCCNC(=N)N)NC(=O)[C@H](CC(C)C)NC(=O)[C@@H](N)CCCNC(=N)N)NC(=O)[C@H](CCCNC(=N)N)NC(=O)[C@H](CC(C)C)NC(=O)[C@@H](N)CCCNC(=N)N)NC(=O)[C@H](CCCNC(=N)N)NC(=O)[C@H](CC(C)C)NC(=O)[C@H](CCCNC(=N)N)NC(=O)[C@H](CCCCNC(=O)[C@H](CCCNC(=N)N)NC(=O)[C@H](CC(C)C)NC(=O)[C@@H](N)CCCNC(=N)N)NC(=O)[C@H](CCCNC(=N)N)NC(=O)[C@H](CC(C)C)NC(=O)[C@@H](N)CCCNC(=N)N)C(N)=O` [G2RLR-L2RL2, (RLR)4(KRLR)2KLLRLL-NH2] (I: H-RLRK([Arg-Leu-Arg])RLRKLLRLL-NH2 / II: H-RLRK([Arg-Leu-Arg])RLR; amide I:8-II:C), the MBC came out at 32 µg/mL (≈ 8.98 µM) in the data set with S. aureus ATCC 29213; 16 µg/mL (≈ 4.49 µM) against B. subtilis ATCC 6051; 16 µg/mL (≈ 4.49 µM) with E. faecium ATCC 35667; 64 µg/mL (≈ 18 µM) against E. coli ATCC 25822; 64 µg/mL (≈ 18 µM) against P. aeruginosa ATCC 27853. Further, the MIC against S. aureus ATCC 29213 is reported as 32 µg/mL (≈ 8.98 µM); against B. subtilis ATCC 6051, 16 µg/mL (≈ 4.49 µM); in the data set on E. faecium ATCC 35667, 16 µg/mL (≈ 4.49 µM); against E. coli ATCC 25822 it was 64 µg/mL (≈ 18 µM); against P. aeruginosa ATCC 27853, 64 µg/mL (≈ 18 µM). Besides, the figures for the IC50 at 24 h in the data set “MTT cytotoxicity assay” and in the data set “in vitro” were 102 µg/mL (≈ 28.7 µM) and 67.4 µg/mL (≈ 18.9 µM), respectively. For the same compound, the “time–kill: effect on bacterial population” value is “reduced the bacterial population to almost zero and no regrowth was appreciated after 24 h” in the data set on P. aeruginosa (at MIC); “the bacterial population remained partially inhibited at the beginning of the exposure” in the data set on P. aeruginosa (at ¼ MIC); “reduced the bacterial population to almost zero and no regrowth was appreciated after 24 h” in the data set with P. aeruginosa (at ½ MIC).

The values above are taken from publication PMC8228121, “Super-Cationic Peptide Dendrimers—Synthesis and Evaluation as Antimicrobial Agents” (Antibiotics, 2021).
